Results: patent US8822444B2, “Hepatitis C virus inhibitors” (Bristol-Myers Squibb Company, priority 2009, dated 2014)

tested on: HCV 1b genotype; assay: HCV Replicon assay; assay type: cell-based; settings: HCV 1b genotype replicon; read-out: 1b EC50 Range
Protocol: An HCV Replicon assay was utilized in the present disclosure, and was prepared, conducted and validated as described in commonly owned PCT/US2006/022197 and in O'Boyle et. al. Antimicrob Agents Chemother. 2005 April; 49(4):1346-53. Assay methods incorporating luciferase reporters have also been used as described (Apath.com).
HCV-neo replicon cells and replicon cells containing mutations in the NS5A region were used to test the currently described family of compounds. The compounds were determined to have more than 10-fold less inhibitory activity on cells containing mutations than wild-type cells. Thus, the compounds of the present disclosure can be effective in inhibiting the function of the HCV NS5A protein and are understood to be as effective in combinations as previously described in application PCT/US2006/022197 and commonly owned WO/04014852. Further, the compounds of the present disclosure can be effective against the HCV 1b genotype. It should also be understood that the compounds of the present disclosure can inhibit multiple genotypes of HCV. […] In one embodiment, compounds of the present disclosure are inhibitory versus 1a, 1b, 2a, 2b, 3a, 4a, and 5a genotypes.

**Q.** `CCN(CC)[C@@H](C(=O)N1CCC[C@H]1c1nc(C2=CCC(C3CC=C(c4c[nH]c([C@@H]5CCCN5C(=O)[C@@H](c5ccccc5)N(CC)CC)n4)CC3)CC2)c[nH]1)c1ccccc1` (stereo partly drawn) [QC-3, (1R,1′R)-2,2′-(1,1′-bi(3-cyclohexen-1-yl)-4,4′-diylbis(1H-imidazole-4,2-diyl(2S)-2,1-pyrrolidinediyl))bis(N,N-diethyl-2-oxo-1-phenylethanamine)] was tested. Which EC50 did it give?
**A.** The EC50 was 2 to 4.57 nM.

**Q.** With `COC(=O)N[C@H](C(=O)N1CCC[C@H]1c1nc(-c2ccc(C3CCC(c4c[nH]c([C@@H]5CCCN5C(=O)[C@@H](NC(=O)OC)C(C)C)n4)CC3)cc2)c[nH]1)C(C)C` (stereo partly drawn) [QC-17, methyl ((1S)-1-(((2S)-2-(4-(4-(4-(2-((2S)-1-((2S)-2-((methoxycarbonyl)amino)-3-methylbutanoyl)pyrrolidin-2-yl)-1H-imidazol-4-yl)phenyl)cyclohexyl)-1H-imidazol-2-yl)pyrrolidin-1-yl)carbonyl)-2-methylpropyl)carbamate] as the compound, how does the EC50 read?
**A.** Its EC50 is 2 to 4.57 nM.

**Q.** For `COC[C@H](NC(=O)OC)C(=O)N1CCC[C@H]1c1nc(C2=CCC(C3CC=C(c4c[nH]c([C@@H]5CCCN5C(=O)[C@H](COC)NC(=O)OC)n4)CC3)CC2)c[nH]1` (stereo partly drawn) [QC-4, methyl ((1S)-2-((2S)-2-(4-(4′-(2-((2S)-1-(N-(methoxycarbonyl)-O-methyl-L-seryl)-2-pyrrolidinyl)-1H-imidazol-4-yl)-1,1′-bi(3-cyclohexen-1-yl)-4-yl)-1H-imidazol-2-yl)-1-pyrrolidinyl)-1-(methoxymethyl)-2-oxoethyl)carbamate], which EC50 is on record?
**A.** Its EC50 is 4.57 to 99 nM.

**Q.** Which EC50 does the source give for `COC(=O)N[C@@H](C)C(=O)N1CCC[C@H]1c1nc(C2=CCC(C3CC=C(c4c[nH]c([C@@H]5CCCN5C(=O)[C@H](C)NC(=O)OC)n4)CC3)CC2)c[nH]1` (stereo partly drawn) [QC-2, methyl ((1S)-2-((2S)-2-(4-(4′-(2-((2S)-1-(N-(methoxycarbonyl)-L-alanyl)-2-pyrrolidinyl)-1H-imidazol-4-yl)-1,1′-bi(3-cyclohexen-1-yl)-4-yl)-1H-imidazol-2-yl)-1-pyrrolidinyl)-1-methyl-2-oxoethyl)carbamate] here?
**A.** The EC50 was 4.57 to 99 nM.

**Q.** With `COC(=O)N[C@H](C(=O)N1CCC[C@H]1c1nc(C2=CCC(C3CC=C(c4c[nH]c([C@@H]5CCCN5C(=O)[C@@H](NC(=O)OC)[C@@H](C)OC)n4)CC3)CC2)c[nH]1)[C@@H](C)OC` (stereo partly drawn) [QC-5, methyl ((1S,2R)-2-methoxy-1-(((2S)-2-(4-(4′-(2-((2S)-1-(N-(methoxycarbonyl)-O-methyl-L-threonyl)-2-pyrrolidinyl)-1H-imidazol-4-yl)-1,1′-bi(3-cyclohexen-1-yl)-4-yl)-1H-imidazol-2-yl)-1-pyrrolidinyl)carbonyl)propyl)carbamate] as the compound, how does the EC50 read?
**A.** Its EC50 is 2 to 4.57 nM.

same assay, conditions: Hepatitis C virus; HCV 1b genotype replicon; read-out: 1b EC50 (in nM or range)

**Q.** `COC[C@H](NC(=O)OC)C(=O)N1CCC[C@H]1c1nc(C2CCC(C3CCC(c4c[nH]c([C@@H]5CCCN5C(=O)[C@H](COC)NC(=O)OC)n4)CC3)CC2)c[nH]1` (stereo partly drawn) [QC-7, methyl ((1S)-2-((2S)-2-(4-(4′-(2-((2S)-1-(N-(methoxycarbonyl)-O-methyl-L-seryl)-2-pyrrolidinyl)-1H-imidazol-4-yl)-1,1′-bi(cyclohexyl)-4-yl)-1H-imidazol-2-yl)-1-pyrrolidinyl)-1-(methoxymethyl)-2-oxoethyl)carbamate] was tested. Which EC50 did it give?
**A.** The EC50 was 17.1 nM.

**Q.** With `COC(=O)N[C@H](C(=O)N1CCC[C@H]1c1nc(C2CCC(C3CCC(c4c[nH]c([C@@H]5CCCN5C(=O)[C@@H](NC(=O)OC)[C@@H](C)OC)n4)CC3)CC2)c[nH]1)[C@@H](C)OC` (stereo partly drawn) [QC-8, methyl ((1S,2R)-2-methoxy-1-(((2S)-2-(4-(4′-(2-((2S)-1-(N-(methoxycarbonyl)-O-methyl-L-threonyl)-2-pyrrolidinyl)-1H-imidazol-4-yl)-1,1′-bi(cyclohexyl)-4-yl)-1H-imidazol-2-yl)-1-pyrrolidinyl)carbonyl)propyl)carbamate] as the compound, how does the EC50 read?
**A.** Its EC50 is 2.4 nM.

**Q.** `COC(=O)N[C@H](C(=O)N1CCC[C@H]1c1nc(C2=CCC(c3ccc(-c4c[nH]c([C@@H]5CCCN5C(=O)[C@@H](NC(=O)OC)C(C)C)n4)cc3)CC2)c[nH]1)C(C)C` (mixture of isomers) [QC-9, methyl ((1S)-1-(((2S)-2-(4-(4-(4-(2-((2S)-1-((2S)-2-((methoxycarbonyl)amino)-3-methylbutanoyl)-2-pyrrolidinyl)-1H-imidazol-4-yl)phenyl)-1-cyclohexen-1-yl)-1H-imidazol-2-yl)-1-pyrrolidinyl)carbonyl)-2-methylpropyl)carbamate] was tested. Which EC50 did it give?
**A.** Its EC50 is 0.011 nM.

same assay, conditions: Hepatitis C virus; HCV 1b genotype replicon; read-out: 1b EC50 Range

**Q.** For `COC(=O)N[C@H](C(=O)N1CCC[C@H]1c1nc(-c2ccc(N3CCC(c4c[nH]c([C@@H]5CCCN5C(=O)[C@@H](NC(=O)OC)C(C)(C)C)n4)CC3)cc2)c[nH]1)C(C)(C)C` [QC-15, methyl ((1S)-1-(((2S)-2-(4-(1-(4-(2-((2S)-1-((2S)-2-((methoxycarbonyl)amino)-3,3-dimethylbutanoyl)-2-pyrrolidinyl)-1H-imidazol-4-yl)phenyl)-4-piperidinyl)-1H-imidazol-2-yl)-1-pyrrolidinyl)carbonyl)-2,2-dimethylpropyl)carbamate], which EC50 is on record?
**A.** The EC50 was 4.57 to 99 nM.

**Q.** How did the EC50 turn out when `COC(=O)N[C@@H](C)C(=O)N1CCC[C@H]1c1nc(C2CCC(C3CCC(c4c[nH]c([C@@H]5CCCN5C(=O)[C@H](C)NC(=O)OC)n4)CC3)CC2)c[nH]1` (stereo partly drawn) [QC-6, methyl ((1S)-2-((2S)-2-(4-(4′-(2-((2S)-1-(N-(methoxycarbonyl)-L-alanyl)-2-pyrrolidinyl)-1H-imidazol-4-yl)-1,1′-bi(cyclohexyl)-4-yl)-1H-imidazol-2-yl)-1-pyrrolidinyl)-1-methyl-2-oxoethyl)carbamate] was run?
**A.** The EC50 was 100 to 999 nM.

**Q.** Which EC50 does the source give for `CC[C@H](NC(=O)OC)C(=O)N1[C@@H]2C[C@@H]2C[C@H]1c1ncc(-c2ccc(C34CCC(c5cnc([C@@H]6C[C@H]7C[C@H]7N6C(=O)[C@H](CC)NC(=O)OC)[nH]5)(CC3)CC4)cc2)[nH]1` [Example M-6, methyl ((1S)-1-(((1R,3S,5R)-3-(5-(4-(4-(2-((1R,3S,5R)-2-((2S)-2-((methoxycarbonyl)amino)butanoyl)-2-azabicyclo[3.1.0]hex-3-yl)-1H-imidazol-5-yl)bicyclo[2.2.2]oct-1-yl)phenyl)-1H-imidazol-2-yl)-2-azabicyclo[3.1.0]hex-2-yl)carbonyl)propyl)carbamate] here?
**A.** Its EC50 is 2 to 4.57 nM.

**Q.** `COC[C@H](NC(=O)OC)C(=O)N1CCC[C@H]1c1nc(C2CCC(C3CCC(c4c[nH]c([C@@H]5CCCN5C(=O)[C@H](COC)NC(=O)OC)n4)CC3)CC2)c[nH]1` (stereo partly drawn) [QC-7, methyl ((1S)-2-((2S)-2-(4-(4′-(2-((2S)-1-(N-(methoxycarbonyl)-O-methyl-L-seryl)-2-pyrrolidinyl)-1H-imidazol-4-yl)-1,1′-bi(cyclohexyl)-4-yl)-1H-imidazol-2-yl)-1-pyrrolidinyl)-1-(methoxymethyl)-2-oxoethyl)carbamate] was tested. Which EC50 did it give?
**A.** Its EC50 is 1000 to 10000 nM.

**Q.** `COC(=O)N[C@H](C(=O)N1CCC[C@H]1c1nc(-c2ccc(C34CCC(c5coc([C@@H]6CCCN6C(=O)[C@@H](NC(=O)OC)C(C)C)n5)(CC3)CC4)cc2)c[nH]1)C(C)C` [Example M-4, methyl ((1S)-1-(((2S)-2-(4-(4-(4-(2-((2S)-1-((2S)-2-((methoxycarbonyl)amino)-3-methylbutanoyl)-2-pyrrolidinyl)-1H-imidazol-4-yl)phenyl)bicyclo[2.2.2]oct-1-yl)-1,3-oxazol-2-yl)-1-pyrrolidinyl)carbonyl)-2-methylpropyl)carbamate] was tested. Which EC50 did it give?
**A.** Its EC50 is 1000 to 10000 nM.

**Q.** How did the EC50 turn out when `COC(=O)N[C@H](C(=O)N1CCC[C@H]1c1nc(-c2ccc(N3CCC(c4c[nH]c([C@@H]5CCCN5C(=O)[C@@H](NC(=O)OC)C(C)C)n4)CC3)cc2)c[nH]1)C(C)C` [QC-13, methyl ((1S)-1-(((2S)-2-(4-(1-(4-(2-((2S)-1-((2S)-2-((methoxycarbonyl)amino)-3-methylbutanoyl)-2-pyrrolidinyl)-1H-imidazol-4-yl)phenyl)-4-piperidinyl)-1H-imidazol-2-yl)-1-pyrrolidinyl)carbonyl)-2-methylpropyl)carbamate] was run?
**A.** The EC50 was 4.57 to 99 nM.

**Q.** `COC(=O)N[C@H](C(=O)N1CCC[C@H]1c1nc(C2CCC(C3CCC(c4c[nH]c([C@@H]5CCCN5C(=O)[C@@H](NC(=O)OC)[C@@H](C)OC)n4)CC3)CC2)c[nH]1)[C@@H](C)OC` (stereo partly drawn) [QC-8, methyl ((1S,2R)-2-methoxy-1-(((2S)-2-(4-(4′-(2-((2S)-1-(N-(methoxycarbonyl)-O-methyl-L-threonyl)-2-pyrrolidinyl)-1H-imidazol-4-yl)-1,1′-bi(cyclohexyl)-4-yl)-1H-imidazol-2-yl)-1-pyrrolidinyl)carbonyl)propyl)carbamate] was tested. Which EC50 did it give?
**A.** Its EC50 is 100 to 999 nM.

**Q.** Which EC50 does the source give for `COC(=O)N[C@@H](C(=O)N1CCC[C@H]1c1nc(-c2ccc(C34CCC(c5c[nH]c([C@@H]6CCCN6C(=O)[C@H](NC(=O)OC)c6ccccc6)n5)(CC3)CC4)cc2)c[nH]1)c1ccccc1` [Example M-3, methyl ((1R)-2-((2S)-2-(4-(4-(4-(2-((2S)-1-((2R)-2-((methoxycarbonyl)amino)-2-phenylacetyl)-2-pyrrolidinyl)-1H-imidazol-4-yl)bicyclo[2.2.2]oct-1-yl)phenyl)-1H-imidazol-2-yl)-1-pyrrolidinyl)-2-oxo-1-phenylethyl)carbamate] here?
**A.** The EC50 was 2 to 4.57 nM.

**Q.** Which EC50 does the source give for `COC(=O)N[C@H](C(=O)N1CCC[C@H]1c1nc(C2=CCC(c3ccc(-c4c[nH]c([C@@H]5CCCN5C(=O)[C@@H](NC(=O)OC)[C@@H](C)OC)n4)cc3)CC2)c[nH]1)[C@@H](C)OC` (stereo partly drawn) [QC-12, methyl ((1S,2R)-2-methoxy-1-(((2S)-2-(4-(4-(4-(2-((2S)-1-(N-(methoxycarbonyl)-O-methyl-L-threonyl)-2-pyrrolidinyl)-1H-imidazol-4-yl)-3-cyclohexen-1-yl)phenyl)-1H-imidazol-2-yl)-1-pyrrolidinyl)carbonyl)propyl)carbamate] here?
**A.** The EC50 was 4.57 to 99 nM.

**Q.** For `COC(=O)N[C@@H](C(=O)N1[C@@H]2C[C@@H]2C[C@H]1c1ncc(-c2ccc(C34CCC(c5cnc([C@@H]6C[C@H]7C[C@H]7N6C(=O)[C@H](NC(=O)OC)c6ccccc6)[nH]5)(CC3)CC4)cc2)[nH]1)c1ccccc1` [Example M-7, methyl ((1R)-2-((1R,3S,5R)-3-(5-(4-(4-(2-((1R,3S,5R)-2-((2R)-2-((methoxycarbonyl)amino)-2-phenylacetyl)-2-azabicyclo[3.1.0]hex-3-yl)-1H-imidazol-5-yl)bicyclo[2.2.2]oct-1-yl)phenyl)-1H-imidazol-2-yl)-2-azabicyclo[3.1.0]hex-2-yl)-2-oxo-1-phenylethyl)carbamate], which EC50 is on record?
**A.** The EC50 was 2 to 4.57 nM.

**Q.** `COC(=O)N[C@H](C(=O)N1CCC[C@H]1c1nc(C2=CCC(c3ccc(-c4c[nH]c([C@@H]5CCCN5C(=O)[C@@H](NC(=O)OC)C(C)C)n4)cc3)CC2)c[nH]1)C(C)C` (mixture of isomers) [QC-9, methyl ((1S)-1-(((2S)-2-(4-(4-(4-(2-((2S)-1-((2S)-2-((methoxycarbonyl)amino)-3-methylbutanoyl)-2-pyrrolidinyl)-1H-imidazol-4-yl)phenyl)-1-cyclohexen-1-yl)-1H-imidazol-2-yl)-1-pyrrolidinyl)carbonyl)-2-methylpropyl)carbamate] was tested. Which EC50 did it give?
**A.** The EC50 was 2 to 4.57 nM.
